From patent publication US5134137A, “Cephalosporin antibiotics” (The Upjohn Company, priority 1990, dated 1992)
≈ marks a conversion by molar mass, not a printed value. Where two headings read alike, the source gives them in different places.

Assays:
Salmonella choleraesuis = experiment: MIC, agar dilution, Salmonella choleraesuis; type: cell-based; settings: Salmonella enterica, read-out: MIC
Experimental: (§1) Stock solution of each test antibiotic compound were prepared to have a concentration of 2 mg. of the test compound per milliliter in sterile water of 0.1M ammonium acetate solution. The amount of each compound used was adjusted for base compound activity as calculated from the purity data for the selected batch of compound.
(§2) The dilution procedure described by Washington and Sutter [Manual of Clinical Microbiology, 3rd, Edit. (Lennett, E. H. et al, Eds.), pp. 453-458 (1980), American Society for Microbiology, Washington, D.C.] was modified so that serial concentrations of 128 to 0.0625 microgram/ml. in sterile water was obtained. Then 1.5 ml. aliquots of these test antibiotic dilution mixtures are added to 13.5 molten (50° C.) Mueller-Hinton agar. Each resulting mixture is poured into 15×100 mm, sterile Petri plates and allowed to dry at room temperature overnight.
(§3) Test bacterial cultures are maintained at -70° C. on glass beads. [See R. J. Yancey, Jr. et al, Amer. Jr. of Vet. Research, 48, No. 7, pp. 1050-1053, (1987)]. At least one bacteria-laden bead per culture is dropped into one ml. of brain heart infusion (BHI) broth for overnight culture at 37° C. in 5% V/V carbon dioxide in air atmosphere.
(§4) On the data of assay, 2 to 8 drops of the bacterial broth cultures are transferred to fresh BHI broth (1 ml.) and the mixture is incubated for 4 to 6 hours at 37° C. in a 5% V/V carbon dioxide in air atmosphere. The resulting cultures are then diluted to match a 0.5 MacFarland standard and further diluted 1:20 V/V with sterile saline solution.
(§5) A 0.001 ml. drop of the resulting mixture, containing approximately 10^3 to 10^4 colony forming units (CFU) of each test bacteria organism, is dispensed onto the surface of the test antibiotic compound test plates with a Steer's type replicator. The resulting innoculated plates are incubated 16 to 18 hours at 37° C. with a carbon dioxide atmosphere.
as §1, with “Stock solutions” for “Stock solution”
as §2, with “mm.” for “mm,”
as §2, with “for Microbiology.” for “for Microbiology,”, “15×100 mm.” for “15×100 mm,”
as §3, with “culture” for “cultures”
(§6) On the day of assay, 2 to 8 drops of the bacterial broth cultures are transferred to fresh BHI broth (1 ml.) and the mixture is incubated for 4 to 6 hours at 37° C. in a 5% V/V carbon dioxide in air atmosphere. […]

Micrococcus luteus = experiment: MIC, agar dilution, Micrococcus luteus; type: cell-based; settings: Micrococcus luteus; strain UC130; read-out: MIC
Experimental: as §1, §2, §3, §4, §5
as §1, with “Stock solutions” for “Stock solution”
as §2, with “mm.” for “mm,”
as §2, with “for Microbiology.” for “for Microbiology,”, “15×100 mm.” for “15×100 mm,”
as §3, with “culture” for “cultures”
as §6

Enterococcus faecium = experiment: MIC, agar dilution, Enterococcus faecium; type: cell-based; settings: Enterococcus faecium; strain UC241; read-out: MIC
Experimental: as §1, with “Stock solutions” for “Stock solution”
as §2, §3, §4, §5, §1
as §2, with “mm.” for “mm,”
as §2, with “for Microbiology.” for “for Microbiology,”, “15×100 mm.” for “15×100 mm,”
as §3, with “culture” for “cultures”
as §6

Staphylococcus aureus = experiment: MIC, agar dilution, Staphylococcus aureus; type: cell-based; settings: Staphylococcus aureus, read-out: MIC
Experimental: as §1, §2, §3, §4, §5
as §1, with “Stock solutions” for “Stock solution”
as §2, with “mm.” for “mm,”
as §2, with “for Microbiology.” for “for Microbiology,”, “15×100 mm.” for “15×100 mm,”
as §3, with “culture” for “cultures”
as §6

Corynebacterium pyogenes = experiment: MIC, agar dilution, Corynebacterium pyogenes; type: cell-based; settings: strain 213-2; read-out: MIC
Experimental: as §1, §2, §3, §4, §5
as §1, with “Stock solutions” for “Stock solution”
as §2, with “mm.” for “mm,”
as §2, with “for Microbiology.” for “for Microbiology,”, “15×100 mm.” for “15×100 mm,”
as §3, with “culture” for “cultures”
as §6

Escherichia coli = experiment: MIC, agar dilution, Escherichia coli; type: cell-based; settings: Escherichia coli, read-out: MIC
Experimental: as §1, §2, §3, §4, §5
as §1, with “Stock solutions” for “Stock solution”
as §2, with “mm.” for “mm,”
as §2, with “for Microbiology.” for “for Microbiology,”, “15×100 mm.” for “15×100 mm,”
as §3, with “culture” for “cultures”
as §6

[1] = Serum half life / duration of antibiotic action; settings: inferred from results against Salmonella typhimurium
[2] = system: Bordetella bronchiseptica; experiment: MIC, agar dilution, Bordetella bronchiseptica; type: cell-based; settings: Bordetella bronchiseptica; strain UC6313; read-out: MIC
Experimental: as §1, §2, §3, §4, §5
as §1, with “Stock solutions” for “Stock solution”
as §2, with “mm.” for “mm,”
as §2, with “for Microbiology.” for “for Microbiology,”, “15×100 mm.” for “15×100 mm,”
as §3, with “culture” for “cultures”
as §6

Streptococcus suis = experiment: MIC, agar dilution, Streptococcus suis; type: cell-based; settings: Streptococcus suis; strain 650-2; read-out: MIC
Experimental: as §1, §2, §3, §4, §5
as §1, with “Stock solutions” for “Stock solution”
as §2, with “mm.” for “mm,”
as §2, with “for Microbiology.” for “for Microbiology,”, “15×100 mm.” for “15×100 mm,”
as §3, with “culture” for “cultures”
as §6

Streptococcus agalactiae = experiment: MIC, agar dilution, Streptococcus agalactiae; type: cell-based; settings: Streptococcus agalactiae, read-out: MIC
Experimental: as §1, §2, §3, §4, §5
as §1, with “Stock solutions” for “Stock solution”
as §2, with “mm.” for “mm,”
as §2, with “for Microbiology.” for “for Microbiology,”, “15×100 mm.” for “15×100 mm,”
as §3, with “culture” for “cultures”
as §6

Salmonella typhimurium = experiment: MIC, agar dilution, Salmonella typhimurium; type: cell-based; settings: Salmonella enterica, read-out: MIC
Experimental: as §1, §2, §3, §4, §5
as §1, with “Stock solutions” for “Stock solution”
as §2, with “mm.” for “mm,”
as §2, with “for Microbiology.” for “for Microbiology,”, “15×100 mm.” for “15×100 mm,”
as §3, with “culture” for “cultures”
as §6

Enterococcus faecalis = experiment: MIC, agar dilution, Enterococcus faecalis; type: cell-based; settings: Enterococcus faecalis; strain UC694; read-out: MIC
Experimental: as §1, with “Stock solutions” for “Stock solution”
as §2, §3, §4, §5, §1
as §2, with “mm.” for “mm,”
as §2, with “for Microbiology.” for “for Microbiology,”, “15×100 mm.” for “15×100 mm,”
as §3, with “culture” for “cultures”
as §6

Streptococcus bovis = experiment: MIC, agar dilution, Streptococcus bovis; type: cell-based; settings: Streptococcus equinus; strain UC6281; read-out: MIC
Experimental: as §1, §2, §3, §4, §5
as §1, with “Stock solutions” for “Stock solution”
as §2, with “mm.” for “mm,”
as §2, with “for Microbiology.” for “for Microbiology,”, “15×100 mm.” for “15×100 mm,”
as §3, with “culture” for “cultures”
as §6

Pseudomonas aeruginosa = experiment: MIC, agar dilution, Pseudomonas aeruginosa; type: cell-based; settings: Pseudomonas aeruginosa, ATCC27853; strain ATCC 27853; read-out: MIC
Experimental: as §1, §2, §3, §4, §5
as §1, with “Stock solutions” for “Stock solution”
as §2, with “mm.” for “mm,”
as §2, with “for Microbiology.” for “for Microbiology,”, “15×100 mm.” for “15×100 mm,”
as §3, with “culture” for “cultures”
as §6

Pasteurella hemolytica = experiment: MIC (minimum inhibitory concentration), agar dilution, Pasteurella hemolytica; type: cell-based; settings: Pasteurella, read-out: MIC
Experimental: as §1, §2, §3, §4, §5
as §1, with “Stock solutions” for “Stock solution”
as §2, with “mm.” for “mm,”
as §2, with “for Microbiology.” for “for Microbiology,”, “15×100 mm.” for “15×100 mm,”
as §3, with “culture” for “cultures”
as §6

Pasteurella multocida = experiment: MIC, agar dilution, Pasteurella multocida; type: cell-based; settings: Pasteurella multocida; strain UC9581; read-out: MIC
Experimental: as §1, §2, §3, §4, §5
as §1, with “Stock solutions” for “Stock solution”
as §2, with “mm.” for “mm,”
as §2, with “for Microbiology.” for “for Microbiology,”, “15×100 mm.” for “15×100 mm,”
as §3, with “culture” for “cultures”
as §6

[3] = system: Streptococcus dysgalactiae; experiment: MIC, agar dilution, Streptococcus dysgalactiae; type: cell-based; settings: Streptococcus dysgalactiae; strain UC251; read-out: MIC
Experimental: as §1, §2, §3, §4, §5
as §1, with “Stock solutions” for “Stock solution”
as §2, with “mm.” for “mm,”
as §2, with “for Microbiology.” for “for Microbiology,”, “15×100 mm.” for “15×100 mm,”
as §3, with “culture” for “cultures”
as §6

Streptococcus uberis = experiment: MIC, agar dilution, Streptococcus uberis; type: cell-based; settings: Streptococcus uberis, read-out: MIC
Experimental: as §1, §2, §3, §4, §5
as §1, with “Stock solutions” for “Stock solution”
as §2, with “mm.” for “mm,”
as §2, with “for Microbiology.” for “for Microbiology,”, “15×100 mm.” for “15×100 mm,”
as §3, with “culture” for “cultures”
as §6

MIC (Micrococcus luteus): 0.25 µg/mL (≈ 0.514 µM)
MIC (Enterococcus faecium): > 32 µg/mL
MIC (Staphylococcus aureus; strain UC6093): 4 µg/mL (≈ 8.22 µM)
MIC (Staphylococcus aureus; strain UC6097): 4 µg/mL (≈ 8.22 µM)
MIC (Staphylococcus aureus; strain UC9203): 4 µg/mL (≈ 8.22 µM)
MIC (Corynebacterium pyogenes): 16 µg/mL (≈ 32.9 µM)
MIC (Escherichia coli; strain UC3784): 1 µg/mL (≈ 2.06 µM)
MIC (Escherichia coli; strain UC6720): 1 µg/mL (≈ 2.06 µM)
MIC (Escherichia coli; strain UC9670): 1 µg/mL (≈ 2.06 µM)
serum half life [1]: longer serum half life
MIC [2]: > 32 µg/mL
MIC (Streptococcus suis): 0.13 µg/mL (≈ 0.267 µM)
MIC (Streptococcus agalactiae; strain UC3947): ≤ 0.06 µg/mL
MIC (Streptococcus agalactiae; strain UC6892): ≤ 0.06 µg/mL
MIC (Salmonella typhimurium; TYPHIMURIUM / UC6162, strain UC6162): 1 µg/mL (≈ 2.06 µM)
MIC (Salmonella typhimurium; TYPHIMURIUM / UC6164, strain UC6164): 1 µg/mL (≈ 2.06 µM)
MIC (Enterococcus faecalis): > 32 µg/mL
MIC (Streptococcus bovis): 0.13 µg/mL (≈ 0.267 µM)
MIC (Pseudomonas aeruginosa): > 32 µg/mL
MIC (Pasteurella multocida): ≤ 0.06 µg/mL
MIC [3]: ≤ 0.06 µg/mL
MIC (Streptococcus uberis; strain UC3946): 0.13 µg/mL (≈ 0.267 µM)
MIC (Streptococcus uberis; strain UC6159): 32 µg/mL (≈ 65.8 µM)
Structure (SMILES): CO/N=C(\C(=O)N[C@@H]1C(=O)N2C(C(=O)O)=C(CSCC(N)=O)CS[C@H]12)c1csc(N)n1 [Example 7, 7-[2-(2-amino-1,3-thiazol-4-yl)-2-(methoxyimino)acetamido]-3-(aminocarbonylmethylthiomethyl)-3-cephem-4-carboxylic acid]
MIC (Salmonella choleraesuis; CHOLERAESUIS / UC6073, strain UC6073): 1 µg/mL (≈ 2.06 µM)
MIC (Salmonella choleraesuis; CHOLERAESUIS / UC6077, strain UC6077): 2 µg/mL (≈ 4.11 µM)
MIC (Pasteurella hemolytica; strain UC6531): ≤ 0.06 µg/mL
MIC (Pasteurella hemolytica; strain UC6532): ≤ 0.06 µg/mL
MIC (Pasteurella hemolytica; strain UC9582): ≤ 0.06 µg/mL
